# What was measured:
# [1] = test system: heart mRNA levels (Nppa, Ctgf, mtDNA encoded genes, PPARα/RXRα target genes); assay: RT-PCR of heart transcripts and mitochondrial RNA junctions; type: in vivo, mouse; details: ISO treated hearts, NR in the presence of GW6471
# Method: RNA Extraction and Quantitative Real-Time Polymerase Chain Reaction (RT-PCR). Total RNA was isolated from frozen heart tissue using the RNeasy fibrous Kit (Qiagen). Total RNA was reverse-transcribed into first-strand cDNA using Iscript (Bio-rad) according to manufacturer's guidelines. Real Time PCR was performed using SYBR green (Bio-Rad). Results of mRNA levels were normalized to 18S rRNA levels and reported as fold-change over control.
# cardiac mitochondria = assay: Isolated cardiac mitochondria respiration (oxygen electrode); type: in vivo, mouse; details: ISO treated mice, GW6471 in addition to NR
# Method: Mitochondrial Isolation from cardiac tissue. Hearts were excised from mice, the aortas and atria were removed. Heart tissues were rinsed briefly in ice-cold mitochondria isolation medium (MIM) (70 mM sucrose, 220 mM mannitol, 5 mM MOPS, 1 mM EDTA, 0.025% fatty acid-free BSA, pH 7.4 with 5M KOH) to remove residual blood. Tissues were minced on ice and resuspended in fresh MIM, followed by trypsin digestion (10 ug/ml) and incubated on ice for 10 min. Trypsin digestion was stopped by the addition of trypsin inhibitor (0.5 mg/ml) and additional BSA (1 mg/ml) to MIM. The tissue pellets were resuspended in fresh MIM containing 1 mg/ml BSA, and transferred to a Teflon-glass tube and homogenized on ice with a Teflon pestle. The homogenates were centrifuged for 10 min at 800×g at 4° C. The supernatants were collected and centrifuged for 10 min at 8,000×g at 4° C. The supernatant was discarded and the mitochondrial pellets were resuspended in MIM to wash. The resuspension was centrifuged for 10 min at 8,000×g at 4° C., and the supernatant discarded. The mitochondrial pellet was resuspended to a concentrated volume for protein quantification by BCA Assay (Pierce).
# Mitochondrial respirations. Isolated mitochondria respiration experiments were performed in an Clark type oxygen electrode Oxytherm System (Hansatech Instruments) at 30C. Briefly, freshly isolated mitochondria were added to respiration buffer (125 mM KCl, 20 mM HEPES, 3 mM MgCl2, 400 μM EGTA, 5 mM KH2PO4, 0.2% BSA (fatty acid free), pH 7.2) and placed in the respiration chamber to measure baseline respiration (State 1). The change in oxygen levels following the immediate addition of substrates (pyruvate/malate (5 mM/2 mM) or palmitoylcarnitine/malate (50 μM/2 mM) (State 2) followed by the sequential addition of 2.5 mM ADP (State 3), […] Oligomycin (State 4p) and 1 μM FCCP (FCCP Max). Antimycin A (2.5 μM) was added last to measure the residual oxygen consumption not accounted for by the electron transfer chain and it was subtracted from the previous measurements.
# [2] = test system: isoproterenol (ISO) induced heart failure in WT and Sirt3Ko mice; assay: Isoproterenol (ISO) minipump induced heart failure, echocardiography and HW/TL; type: in vivo, mouse; details: 14 days of ISO, NR plus GW6471 4.5 mg/kg/day
# Method: Minipump implantation. Pathologic hypertrophy was induced by treating male (3-4 months old) Sirt3ko and WT mice with isoproterenol (ISO) or vehicle for 14 days. Mice with and without GW6471(4.5 mg/kg/day) were treated with NR (500 mg/kg body weight IP daily) or vehicle starting at day one after mini-pump insertion. Briefly, an incision was made in the skin between the shoulder blades. A deep subcutaneous pocket was made caudal to the incision using blunt dissection. The sterile minipump (Alzet #2002) was inserted into the pocket, and the incision was closed with wound clips. Isoproterenol (30 mg/kg/day) was delivered by osmotic minipump for 14 days. Minipumps carrying saline were used as a control.
# Transthoracic Echocardiography. Echocardiography of hearts was performed at indicated time after surgery using the VEVO 2100 high-frequency, high-resolution digital imaging system (VisualSonics) equipped with a MS400 Microscan Transducer on anesthetized mice (0.5%-2% isoflurane in 95% oxygen). Measurements were made when heart rate was >450 bpm. Cardiac function and geometry measurements were measured in parasternal short axis view. M-mode images were used for analysis and calculated by the average of at least three cardiac cycles and carried out in a blind fashion. Hearts were harvested at 12-week post-surgery for subsequent experiments and biochemical assays.
# Organ weight and histological assessment. Hearts from mice were harvested, rinsed briefly in 1×PBS, blotted dry, and weighed. Lungs from the same mice were harvested, weighed, then dried at 56 C. After 72 hours the lungs were weighed again. Heart weight (HW) and Lung weight (LW) was normalized to tibia length (TL) to assess changes in hypertrophic growth and lung edema, respectively. For histology, hearts were perfusion fixed with 10% neutral buffered formalin. Longitudinal sections of hearts were stained with Masson's Trichrome for assessment of fibrosis by the University of Washington Histology and Imaging Core.
# RXRα = assay: Chromatin immunoprecipitation (ChIP) of RXRα at the Acadm promoter PPRE; type: in vivo; details: ISO mouse hearts, NR plus GW6471
# Method: Chromatin immunoprecipitation (ChIP). The EZ ChIP kit (EMD Millipore catalog #17-371) was used according to the manufacturer's protocol. Briefly, heart tissue was cut into small pieces using a razor blade in a petri dish on ice. The cubed tissue was incubated in fixation solution (1% formaldehye) in a conical tube and rotated at room temperature for 15 minutes to crosslink proteins and chromatin. The reaction was stopped by adding 0.125M Glycine for 5 min at room temperature. The contents were homogenized with a hand-held tissue homogenizer for 45 seconds then pelleted by centrifugation for 3 minutes at 1,250×g at 4C. The supernatant was discarded and the pellet was resuspended in 10 ml ice-cold PBS wash buffer followed by centrifugation at 1,250×g for 3 minutes. This was wash step was repeated on ice. The supernatant was discarded and the pellet resuspended in 5 ml chromatin prep buffer and incubated on ice for 10 minutes. The resuspended pellet was homogenized on ice with a dounce homogenizer for 30 strokes and then contents transferred to new conical tube on ice. The suspension was centrifuged 3 minutes at 1,250×g at 4C then supernatant discarded. The pellet was resuspended in 1 ml Chip buffer and transferred to new centrifuge tube then incubated on ice for 10 minutes. […] Purified chromatin was analyzed on a 1% agarose gel to determine the shearing efficiency. […]
structure (smiles),measurement,setting,value
CCC(=O)NC[C@H](Cc1ccc(OCCc2nc(-c3ccccc3)oc2C)cc1)N/C(C)=C\C(=O)c1ccc(C(F)(F)F)cc1 [GW6471],PPARα/RXRα target gene expression,[1],failed to preserve
same,Restoration by NR of PLC supported State 3 respiration,cardiac mitochondria,clearly blocked
same,"Protection by NR (FS %, cardiac hypertrophy)",[2],blocked
same,NR-induced increase of RXRα binding occupancy at the Acadm PPRE,RXRα,blocked
